Reference: patent publication US8865756B2, “Inhibitors of HCV NS5A” (Presidio Pharmaceuticals, Inc., priority 2008, dated 2014)

System: HCV 1b_Huh-Luc/Neo-ET cell line persistently expressing a bicistronic genotype 1b replicon in Huh 7 cells
Assay: HCV replicon assay (luciferase readout)
Format: cell-based
Details: Hepatitis C virus, Huh-7, 72 h, read-out: Inhibition of HCV genotype 1b
Outline: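 Huh 7 cells carrying a genotype 1b luciferase/neo replicon treated in triplicate for 72 h, then luciferase activity measured. Signal expressed as % of control; EC50 from four-parameter logistic fit, determined several times.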

## COC(=O)N[C@H](C(=O)N1CCC[C@H]1c1ncc(C#Cc2ccc(-c3ccc(-c4cnc([C@@H]5CCCN5C(=O)[C@@H](NC(=O)OC)C(C)C)[nH]4)cc3)cc2)[nH]1)C(C)C [Compound 756]
  EC50: < 1 nM

## CC(C)(C)OC(=O)N[C@@H](C(=O)N1CCC[C@H]1c1ncc(C#Cc2ccc(-c3ccc(-c4cnc([C@@H]5CCCN5C(=O)[C@H](NC(=O)OC(C)(C)C)c5ccccc5)[nH]4)cc3)cc2)[nH]1)c1ccccc1 [Compound 757]
  EC50: < 1 nM

## COC(=O)N[C@@H](C(=O)N1CCC[C@H]1c1ncc(C#Cc2ccc(-c3ccc(-c4cnc([C@@H]5CCCN5C(=O)[C@@H](c5ccccc5)N5CCOCC5)[nH]4)cc3)cc2)[nH]1)c1ccccc1 [Compound 758]
  EC50: < 1 nM

## COC(=O)N[C@@H](C(=O)N1CCC[C@H]1c1ncc(C#Cc2ccc(-c3ccc(-c4cnc([C@@H]5CCCN5C(=O)[C@@H](c5ccccc5)N5CCCC5)[nH]4)cc3)cc2)[nH]1)c1ccccc1 [Compound 759]
  EC50: < 1 nM

## O=C(N[C@@H](C(=O)N1CCC[C@H]1c1ncc(C#Cc2ccc(-c3ccc(-c4cnc([C@@H]5CCCN5C(=O)[C@H](NC(=O)C5CC5)c5ccccc5)[nH]4)cc3)cc2)[nH]1)c1ccccc1)C1CC1 [Compound 760]
  EC50: < 1 nM

## O=C(N[C@@H](C(=O)N1CCC[C@H]1c1ncc(C#Cc2ccc(-c3ccc(-c4cnc([C@@H]5CCCN5C(=O)[C@H](NC(=O)N5CCOCC5)c5ccccc5)[nH]4)cc3)cc2)[nH]1)c1ccccc1)N1CCOCC1 [Compound 761]
  EC50: < 1 nM

## O=C(N[C@@H](C(=O)N1CCC[C@H]1c1ncc(C#Cc2ccc(-c3ccc(-c4cnc([C@@H]5CCCN5C(=O)[C@H](NC(=O)N5CC[C@H](O)C5)c5ccccc5)[nH]4)cc3)cc2)[nH]1)c1ccccc1)N1CC[C@H](O)C1 [Compound 762]
  EC50: < 1 nM

## O=C(N[C@@H](C(=O)N1CCC[C@H]1c1ncc(C#Cc2ccc(-c3ccc(-c4cnc([C@@H]5CCCN5C(=O)[C@H](NC(=O)N5CC[C@@H](O)C5)c5ccccc5)[nH]4)cc3)cc2)[nH]1)c1ccccc1)N1CC[C@@H](O)C1 [Compound 763]
  EC50: < 1 nM

## COC(=O)N[C@@H](C(=O)N1CCC[C@H]1c1ncc(-c2ccc(C#Cc3ccc4nc([C@@H]5CCCN5C(=O)[C@H](NC(=O)OC)c5ccccc5)[nH]c4c3)cc2)[nH]1)c1ccccc1 [Compound 800]
  EC50: < 1 nM

## CC(C)(C)OC(=O)N[C@@H](C(=O)N1CCC[C@H]1c1ncc(-c2ccc(C#Cc3ccc4nc([C@@H]5CCCN5C(=O)[C@H](NC(=O)OC(C)(C)C)c5ccccc5)[nH]c4c3)cc2)[nH]1)c1ccccc1 [Compound 801]
  EC50: < 1 nM

## COC(=O)N[C@H](C(=O)N1CCC[C@H]1c1ncc(-c2ccc(C#Cc3ccc4nc([C@@H]5CCCN5C(=O)[C@@H](NC(=O)OC)C(C)C)[nH]c4c3)cc2)[nH]1)C(C)C [Compound 802]
  EC50: < 1 nM

## O=C(N[C@@H](C(=O)N1CCC[C@H]1c1nc(-c2ccc3cc(C#Cc4cnc([C@@H]5CCCN5C(=O)[C@H](NC(=O)C5CC5)c5ccccc5)[nH]4)ccc3c2)c[nH]1)c1ccccc1)C1CC1 [Compound 804]
  EC50: < 1 nM

## CC1(O)CCC(C(=O)N[C@@H](C(=O)N2CCC[C@H]2c2nc(-c3ccc4cc(C#Cc5cnc([C@@H]6CCCN6C(=O)[C@H](NC(=O)N6CCC(C)(O)CC6)c6ccccc6)[nH]5)ccc4c3)c[nH]2)c2ccccc2)CC1 (stereo partly drawn) [Compound 805]
  EC50: < 1 nM

## O=C(N[C@@H](C(=O)N1CCC[C@H]1c1nc(-c2ccc3cc(C#Cc4cnc([C@@H]5CCCN5C(=O)[C@H](NC(=O)N5CC[C@H](O)C5)c5ccccc5)[nH]4)ccc3c2)c[nH]1)c1ccccc1)N1CC[C@H](O)C1 [Compound 806]
  EC50: 1 to 9.9 nM

## O=C(N[C@@H](C(=O)N1CCC[C@H]1c1nc(-c2ccc3cc(C#Cc4cnc([C@@H]5CCCN5C(=O)[C@H](NC(=O)N5CC[C@@H](O)C5)c5ccccc5)[nH]4)ccc3c2)c[nH]1)c1ccccc1)N1CC[C@@H](O)C1 [Compound 807]
  EC50: 1 to 9.9 nM

## O=C(N[C@@H](C(=O)N1CCC[C@H]1c1nc(-c2ccc3cc(C#Cc4cnc([C@@H]5CCCN5C(=O)[C@H](NC(=O)N5CCOCC5)c5ccccc5)[nH]4)ccc3c2)c[nH]1)c1ccccc1)N1CCOCC1 [Compound 808]
  EC50: < 1 nM

## COC(=O)N[C@@H](C(=O)N1CCC[C@H]1c1nc2ccc(C#Cc3ccc4nc([C@@H]5CCCN5C(=O)[C@H](NC(=O)OC)c5ccccc5)[nH]c4c3)cc2[nH]1)c1ccccc1 [Compound 851]
  EC50: < 1 nM

## COC(=O)N[C@H](C(=O)N1CCC[C@H]1c1nc2ccc(C#Cc3ccc4nc([C@@H]5CCCN5C(=O)[C@@H](NC(=O)OC)C(C)C)[nH]c4c3)cc2[nH]1)C(C)C [Compound 852]
  EC50: < 1 nM

## COC(=O)N[C@@H](C(=O)N1CCC[C@H]1c1nc2ccc(C#Cc3ccc4nc([C@@H]5CCCN5C(=O)[C@H](NC(=O)OC)C(C)C)[nH]c4c3)cc2[nH]1)C(C)C [Compound 853]
  EC50: < 1 nM

## COC(=O)N[C@H](C(=O)N1CCC[C@H]1c1ncc(-c2ccc(C#Cc3ccc4nc([C@@H]5CCCN5C(=O)[C@@H](c5ccccc5)N(C)C)[nH]c4c3)cc2)[nH]1)C(C)C [Compound 860]
  EC50: < 1 nM

## COC(=O)N[C@@H](C(=O)N1CCC[C@H]1c1ncc(-c2ccc(C#Cc3ccc4nc([C@@H]5CCCN5C(=O)[C@H](NC(=O)OC)C(C)C)[nH]c4c3)cc2)[nH]1)C(C)C [Compound 861]
  EC50: 10 to 999 nM

## COC(=O)N[C@H](C(=O)N1CCC[C@H]1c1ncc(-c2ccc(C#Cc3ccc4nc([C@@H]5CCCN5C(=O)[C@@H](NC(=O)OC)[C@@H](C)OC)[nH]c4c3)cc2)[nH]1)[C@@H](C)OC [Compound 862]
  EC50: < 1 nM

## COC(=O)N[C@H](C(=O)N1CCC[C@H]1c1ncc(-c2ccc(C#Cc3ccc4nc([C@@H]5CCCN5C(=O)[C@@H](NC(=O)OC)[C@@H](C)O)[nH]c4c3)cc2)[nH]1)[C@@H](C)O [Compound 863]
  EC50: < 1 nM

## COC(=O)N[C@H](C(=O)N1CCC[C@H]1c1nc2ccc(C#Cc3ccc(-c4cnc([C@@H]5CCCN5C(=O)[C@H](c5ccccc5)N(C)C)[nH]4)cc3)cc2[nH]1)C(C)C [Compound 864]
  EC50: < 1 nM

## COC(=O)N[C@H](C(=O)N1CCC[C@H]1c1nc2ccc(C#Cc3ccc(-c4cnc([C@@H]5CCCN5C(=O)[C@@H](C(C)C)N(C)C)[nH]4)cc3)cc2[nH]1)C(C)C [Compound 865]
  EC50: < 1 nM

## COC(=O)N[C@H](C(=O)N1CCC[C@H]1c1nc2ccc(C#Cc3ccc(-c4cnc([C@@H]5CCCN5C(=O)[C@H](C(C)C)N(C)C)[nH]4)cc3)cc2[nH]1)C(C)C [Compound 866]
  EC50: < 1 nM

## COC(=O)N[C@H](C(=O)N[C@@H](C)c1nc2ccc(C#Cc3ccc(-c4cnc([C@@H]5CCCN5C(=O)[C@@H](NC(=O)OC)C(C)C)[nH]4)cc3)cc2[nH]1)C(C)C [Compound 867]
  EC50: < 1 nM

## COC(=O)N[C@H](C(=O)N[C@@H](C)c1ncc(-c2ccc(C#Cc3ccc4nc([C@H](C)NC(=O)[C@@H](NC(=O)OC)C(C)C)[nH]c4c3)cc2)[nH]1)C(C)C [Compound 868]
  EC50: < 1 nM

## COC(=O)N[C@H](C(=O)N[C@@H](C)c1ncc(-c2ccc(C#Cc3ccc4nc([C@@H]5CCCN5C(=O)[C@@H](NC(=O)OC)C(C)C)[nH]c4c3)cc2)[nH]1)C(C)C [Compound 869]
  EC50: < 1 nM

## CC1(O)CCN(C(=O)N[C@@H](C(=O)N2CCC[C@H]2c2ncc(C#Cc3ccc(-c4ccc(-c5cnc([C@@H]6CCCN6C(=O)[C@H](NC(=O)N6CCC(C)(O)CC6)c6ccccc6)[nH]5)cc4)cc3)[nH]2)c2ccccc2)CC1 [Compound 870]
  EC50: < 1 nM

## COC(=O)N[C@@H](C(=O)N[C@@H](C)c1ncc(-c2ccc(C#Cc3ccc(-c4cnc([C@H](C)NC(=O)[C@H](NC(=O)OC)C(C)C)[nH]4)cc3)cc2)[nH]1)C(C)C [Compound 950]
  EC50: < 1 nM

## COC(=O)N[C@H](C(=O)N[C@@H](C)c1ncc(-c2ccc(C#Cc3ccc(-c4cnc([C@H](C)NC(=O)[C@@H](NC(=O)OC)C(C)C)[nH]4)cc3)cc2)[nH]1)C(C)C [Compound 951]
  EC50: < 1 nM

## COC(=O)N[C@H](C(=O)N[C@@H](C)c1ncc(-c2ccc(C#Cc3ccc(-c4cnc([C@H](C)NC(=O)[C@@H](NC(=O)OC)[C@@H](C)OC)[nH]4)cc3)cc2)[nH]1)[C@@H](C)OC [Compound 952]
  EC50: 1 to 9.9 nM

## COC(=O)N[C@H](C(=O)N1CCC[C@H]1c1ncc(-c2ccc(C#Cc3ccc(-c4cnc([C@@H]5CCCN5C(=O)[C@H](C(C)C)N(C)C)[nH]4)cc3)cc2)[nH]1)C(C)C [Compound 953]
  EC50: 1 to 9.9 nM

## COC(=O)N[C@H](C(=O)N1CCC[C@H]1c1ncc(-c2ccc(C#Cc3ccc(-c4cnc([C@@H]5CCCN5C(=O)[C@@H](C(C)C)N(C)C)[nH]4)cc3)cc2)[nH]1)C(C)C [Compound 954]
  EC50: 1 to 9.9 nM

## COC(=O)N[C@H](C(=O)N1CCC[C@H]1c1ncc(-c2ccc(C#Cc3ccc(-c4cnc([C@@H]5CCCN5C(=O)[C@@H](c5ccccc5)N(C)C)[nH]4)cc3)cc2)[nH]1)C(C)C [Compound 955]
  EC50: < 1 nM

## COC(=O)N[C@H](C(=O)N1CCC[C@H]1c1ncc(-c2ccc(C#Cc3ccc(-c4cnc([C@@H]5CCCN5C(=O)[C@@H](c5ccccc5)N5CCC(O)CC5)[nH]4)cc3)cc2)[nH]1)C(C)C [Compound 956]
  EC50: < 1 nM

## COC(=O)N[C@H](C(=O)N1CCC[C@H]1c1ncc(-c2ccc(C#Cc3ccc(-c4cnc([C@@H]5CCCN5C(=O)[C@@H](c5ccccc5)N5CCN(C)CC5)[nH]4)cc3)cc2)[nH]1)C(C)C [Compound 957]
  EC50: < 1 nM

## COC(=O)N[C@H](C(=O)N1CCC[C@H]1c1ncc(-c2ccc(C#Cc3ccc(-c4cnc([C@@H]5CCCN5C(=O)[C@@H](c5ccccc5)N5CCN(CCO)CC5)[nH]4)cc3)cc2)[nH]1)C(C)C [Compound 958]
  EC50: < 1 nM

## CC[C@H](NC(=O)OC)C(=O)N1CCC[C@H]1c1ncc(-c2ccc(C#Cc3ccc(-c4cnc([C@@H]5CCCN5C(=O)[C@H](CC)NC(=O)OC)[nH]4)cc3)cc2)[nH]1 [Compound 960]
  EC50: < 1 nM

## COC(=O)N[C@@H](CC(C)C)C(=O)N1CCC[C@H]1c1ncc(-c2ccc(C#Cc3ccc(-c4cnc([C@@H]5CCCN5C(=O)[C@H](CC(C)C)NC(=O)OC)[nH]4)cc3)cc2)[nH]1 [Compound 961]
  EC50: < 1 nM

## COC(=O)N[C@@H](C)C(=O)N1CCC[C@H]1c1ncc(-c2ccc(C#Cc3ccc(-c4cnc([C@@H]5CCCN5C(=O)[C@H](C)NC(=O)OC)[nH]4)cc3)cc2)[nH]1 [Compound 962]
  EC50: < 1 nM
